From patent publication US20250145665A1, “MACROCYCLIC PEPTIDES USEFUL AS MODULATORS OF TNF ALPHA” (Bristol-Myers Squibb Company, priority 2023, published 2025)
pIC50: −log10 of the molar value. Read-outs that look alike come from different tables or passages of the source. Starred links: 1 amine or outer side, 2 acyl side, 3 side chain; linkers in the order of their positions; H or OH if unused. Positions of bridges follow the written chain, without caps; N, C: chain ends. Non-standard residues stand in square brackets, D forms with d. Residues, ends and D or L forms follow the SMILES beside them. *: point of attachment. X5 = Cn1nc(C(=O)Nc2ccc(-c3ccc(C[C@H](N[*:1])C(=O)[*:2])cc3)cc2)c2ccccc21; dArg(ω-(2S)-2,3-diOHpropyl) = N=C(NCCC[C@@H](N)C(=O)O)NC[C@H](O)CO; Bip(4'-NH) = O=C([C@H](Cc1ccc(-c2ccc(N[*:3])cc2)cc1)N[*:1])[*:2]; dArg(ω-Bn(3-CH2OH)) = N=C(NCCC[C@@H](N)C(=O)O)NCc1cccc(CO)c1; Indazole3carbonyl(1-CH2COOH) = O=C(O)Cn1nc(C(=O)*)c2ccccc21; X54 = N=C(NCCC[C@@H](N[*:1])C(=O)[*:2])NCc1cccc(-n2ccnc2)c1; X19 = N=C(NCCC[C@@H](N[*:1])C(=O)[*:2])NCc1ccc2ccccc2c1; X66 = N=C(NCCC[C@@H](N[*:1])C(=O)[*:2])NCc1ccc(F)c(F)c1; X7 = N=C(NCCC[C@@H](N[*:1])C(=O)[*:2])NCc1ccc2occc2c1; dArg(ω-Bn) = N=C(NCCC[C@@H](N)C(=O)O)NCc1ccccc1; Ala(morpholin-4-yl) = N[C@@H](CN1CCOCC1)C(=O)O; Bip = N[C@@H](Cc1ccc(-c2ccccc2)cc1)C(=O)O; Cha = N[C@@H](CC1CCCCC1)C(=O)O; Sar = CNCC(=O)O

Biological target: TNFα (Homo sapiens, UniProt P01375)
Sequence (P01375 77-233 limits assumed): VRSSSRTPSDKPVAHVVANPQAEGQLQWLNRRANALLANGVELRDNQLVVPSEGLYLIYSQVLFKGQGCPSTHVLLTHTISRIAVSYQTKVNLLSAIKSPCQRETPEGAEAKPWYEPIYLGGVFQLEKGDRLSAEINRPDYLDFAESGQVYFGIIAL
Assay: TNF-Induced HEK-Blue Assay
Assay type: cell-based
[1] = HEK-Blue-CD40L cells, NF-kB-driven secreted alkaline phosphatase reporter, TNFα 0.5 ng/ml, 18 h, read-out: TNF induced HEK-Blue assay IC50 value

Structure (SMILES)	pIC50	pIC50 [1]
CC(C)C[C@@H]1NC(=O)[C@H](CCCNC(=N)N)NC(=O)[C@H](C(C)C)NC(=O)[C@@H]2CCCN2C(=O)[C@H](C(C)C)NC(=O)[C@@H](CCCNC(=N)NCc2cccc(-n3ccnc3)c2)NC(=O)[C@H](CC(=O)O)NC(=O)[C@@H]2CCCN2C(=O)CN(C)C(=O)[C@H](Cc2ccc(-c3ccc(NC(=O)c4nn(CC(=O)O)c5ccccc45)cc3)cc2)NC(=O)[C@H](Cc2ccc(-c3ccccc3)cc2)NC(=O)[C@H](CN2CCOCC2)NC(=O)CSC[C@@H](C(=O)NCC(N)=O)NC1=O [Example 470] ({CH2CO}-[Ala(morpholin-4-yl)][Bip][Bip(4'-NH)](Indazole3carbonyl(1-CH2COOH))[Sar]PD[X54]VPVRLCG-NH2; thioether N-13)	> 7.30	
CC(C)C[C@@H]1NC(=O)[C@H](CCCNC(=N)N)NC(=O)[C@H](C(C)C)NC(=O)[C@@H]2CCCN2C(=O)[C@H](C(C)C)NC(=O)[C@@H](CCCNC(=N)NCc2ccccc2)NC(=O)[C@H](CC(=O)O)NC(=O)[C@@H]2CCCN2C(=O)CN(C)C(=O)[C@H](Cc2ccc(-c3ccc(NC(=O)c4nn(C)c5ccccc45)cc3)cc2)NC(=O)[C@H](Cc2ccc(-c3ccccc3)cc2)NC(=O)[C@H](CN2CCOCC2)NC(=O)CSC[C@@H](C(=O)NCC(N)=O)NC1=O [Example 471] ({CH2CO}-[Ala(morpholin-4-yl)][Bip][X5][Sar]PD[dArg(ω-Bn)]VPVRLCG-NH2; thioether N-13)		> 7.30
CC(C)C[C@@H]1NC(=O)[C@H](CCCNC(=N)N)NC(=O)[C@H](C(C)C)NC(=O)[C@@H]2CCCN2C(=O)[C@H](C(C)C)NC(=O)[C@@H](CCCNC(=N)NCc2ccc3ccccc3c2)NC(=O)[C@H](CC(=O)O)NC(=O)[C@@H]2CCCN2C(=O)CN(C)C(=O)[C@H](Cc2ccc(-c3ccc(NC(=O)c4nn(C)c5ccccc45)cc3)cc2)NC(=O)[C@H](Cc2ccc(-c3ccccc3)cc2)NC(=O)[C@H](CN2CCOCC2)NC(=O)CSC[C@@H](C(=O)NCC(N)=O)NC1=O [Example 472] ({CH2CO}-[Ala(morpholin-4-yl)][Bip][X5][Sar]PD[X19]VPVRLCG-NH2; thioether N-13)		6.70 to 7.30
CC(C)C[C@@H]1NC(=O)[C@H](CCCNC(=N)N)NC(=O)[C@H](C(C)C)NC(=O)[C@@H]2CCCN2C(=O)[C@H](C(C)C)NC(=O)[C@@H](CCCNC(=N)NCc2ccc(F)c(F)c2)NC(=O)[C@H](CC(=O)O)NC(=O)[C@@H]2CCCN2C(=O)CN(C)C(=O)[C@H](Cc2ccc(-c3ccc(NC(=O)c4nn(C)c5ccccc45)cc3)cc2)NC(=O)[C@H](Cc2ccc(-c3ccccc3)cc2)NC(=O)[C@H](CN2CCOCC2)NC(=O)CSC[C@@H](C(=O)NCC(N)=O)NC1=O [Example 473] ({CH2CO}-[Ala(morpholin-4-yl)][Bip][X5][Sar]PD[X66]VPVRLCG-NH2; thioether N-13)		> 7.30
CC(C)C[C@@H]1NC(=O)[C@H](CCCNC(=N)N)NC(=O)[C@H](C(C)C)NC(=O)[C@@H]2CCCN2C(=O)[C@H](C(C)C)NC(=O)[C@@H](CCCNC(=N)NCc2cccc(-n3ccnc3)c2)NC(=O)[C@H](CC(=O)O)NC(=O)[C@@H]2CCCN2C(=O)CN(C)C(=O)[C@H](Cc2ccc(-c3ccc(NC(=O)c4nn(C)c5ccccc45)cc3)cc2)NC(=O)[C@H](Cc2ccc(-c3ccccc3)cc2)NC(=O)[C@H](CN2CCOCC2)NC(=O)CSC[C@@H](C(=O)NCC(N)=O)NC1=O [Example 474] ({CH2CO}-[Ala(morpholin-4-yl)][Bip][X5][Sar]PD[X54]VPVRLCG-NH2; thioether N-13)		6.70 to 7.30
CC(C)C[C@@H]1NC(=O)[C@H](CCCNC(=N)N)NC(=O)[C@H](C(C)C)NC(=O)[C@@H]2CCCN2C(=O)[C@H](C(C)C)NC(=O)[C@@H](CCCNC(=N)NC[C@H](O)CO)NC(=O)[C@H](CC(=O)O)NC(=O)[C@@H]2CCCN2C(=O)CN(C)C(=O)[C@H](Cc2ccc(-c3ccc(NC(=O)c4nn(CC(=O)O)c5ccccc45)cc3)cc2)NC(=O)[C@H](Cc2ccc(-c3ccccc3)cc2)NC(=O)[C@H](CN2CCOCC2)NC(=O)CSC[C@@H](C(=O)NCC(N)=O)NC1=O [Example 475] ({CH2CO}-[Ala(morpholin-4-yl)][Bip][Bip(4'-NH)](Indazole3carbonyl(1-CH2COOH))[Sar]PD[dArg(ω-(2S)-2,3-diOHpropyl)]VPVRLCG-NH2; thioether N-13)	> 7.30	
CC(C)C[C@@H]1NC(=O)[C@H](CCCNC(=N)N)NC(=O)[C@H](C(C)C)NC(=O)[C@@H]2CCCN2C(=O)[C@H](C(C)C)NC(=O)[C@@H](CCCNC(=N)NC[C@H](O)CO)NC(=O)[C@H](CC(=O)O)NC(=O)[C@@H]2CCCN2C(=O)CN(C)C(=O)[C@H](Cc2ccc(-c3ccc(NC(=O)c4nn(C)c5ccccc45)cc3)cc2)NC(=O)[C@H](Cc2ccc(-c3ccccc3)cc2)NC(=O)[C@H](CN2CCOCC2)NC(=O)CSC[C@@H](C(=O)NCC(N)=O)NC1=O [Example 476] ({CH2CO}-[Ala(morpholin-4-yl)][Bip][X5][Sar]PD[dArg(ω-(2S)-2,3-diOHpropyl)]VPVRLCG-NH2; thioether N-13)		> 7.30
CC[C@H](C)[C@@H]1NC(=O)[C@@H](CCCNC(=N)NCc2cccc(CO)c2)NC(=O)[C@H](CC(=O)O)NC(=O)[C@H](Cc2cnc[nH]2)NC(=O)CN(C)C(=O)[C@H](Cc2ccc(-c3ccc(NC(=O)c4nn(CC(=O)O)c5ccccc45)cc3)cc2)NC(=O)[C@H](Cc2ccc(-c3ccccc3)cc2)NC(=O)[C@H](CC2CCCCC2)NC(=O)CSC[C@@H](C(=O)NCC(N)=O)NC(=O)[C@H](CC(C)C)NC(=O)[C@H](Cc2cnc[nH]2)NC(=O)[C@H](C(C)C)NC(=O)[C@@H]2CCCN2C1=O [Example 477] ({CH2CO}-[Cha][Bip][Bip(4'-NH)](Indazole3carbonyl(1-CH2COOH))[Sar]HD[dArg(ω-Bn(3-CH2OH))]IPVHLCG-NH2; thioether N-13)	> 7.30	
CC[C@H](C)[C@@H]1NC(=O)[C@@H](CCCNC(=N)NCc2cccc(CO)c2)NC(=O)[C@H](CC(=O)O)NC(=O)[C@H](Cc2cnc[nH]2)NC(=O)CN(C)C(=O)[C@H](Cc2ccc(-c3ccc(NC(=O)c4nn(C)c5ccccc45)cc3)cc2)NC(=O)[C@H](Cc2ccc(-c3ccccc3)cc2)NC(=O)[C@H](CC2CCCCC2)NC(=O)CSC[C@@H](C(=O)NCC(N)=O)NC(=O)[C@H](CC(C)C)NC(=O)[C@H](Cc2cnc[nH]2)NC(=O)[C@H](C(C)C)NC(=O)[C@@H]2CCCN2C1=O [Example 478] ({CH2CO}-[Cha][Bip][X5][Sar]HD[dArg(ω-Bn(3-CH2OH))]IPVHLCG-NH2; thioether N-13)		6.70 to 7.30
CC[C@H](C)[C@@H]1NC(=O)[C@@H](CCCNC(=N)NCc2ccc3occc3c2)NC(=O)[C@H](CC(=O)O)NC(=O)[C@H](Cc2cnc[nH]2)NC(=O)CN(C)C(=O)[C@H](Cc2ccc(-c3ccc(NC(=O)c4nn(CC(=O)O)c5ccccc45)cc3)cc2)NC(=O)[C@H](Cc2ccc(-c3ccccc3)cc2)NC(=O)[C@H](CC2CCCCC2)NC(=O)CSC[C@@H](C(=O)NCC(N)=O)NC(=O)[C@H](CC(C)C)NC(=O)[C@H](Cc2cnc[nH]2)NC(=O)[C@H](C(C)C)NC(=O)[C@@H]2CCCN2C1=O [Example 479] ({CH2CO}-[Cha][Bip][Bip(4'-NH)](Indazole3carbonyl(1-CH2COOH))[Sar]HD[X7]IPVHLCG-NH2; thioether N-13)	> 7.30	
